What was measured:
Aster-B GRAM domain [1] = biological target: T1, Aster-B GRAM domain (Mus musculus, UniProt Q80TI0); assay: protein-lipid overlay (PIP Strips); format: binding; conditions: lipid strip, 100 pmol lipid per spot
T1 construct: B GRAM (Aster-B1-337) was conducted using PIP Strips (Echelon Biosciences); made in house; host or cells: Sf9 insect cells
T1 sequence (Q80TI0 41-377 limits assumed): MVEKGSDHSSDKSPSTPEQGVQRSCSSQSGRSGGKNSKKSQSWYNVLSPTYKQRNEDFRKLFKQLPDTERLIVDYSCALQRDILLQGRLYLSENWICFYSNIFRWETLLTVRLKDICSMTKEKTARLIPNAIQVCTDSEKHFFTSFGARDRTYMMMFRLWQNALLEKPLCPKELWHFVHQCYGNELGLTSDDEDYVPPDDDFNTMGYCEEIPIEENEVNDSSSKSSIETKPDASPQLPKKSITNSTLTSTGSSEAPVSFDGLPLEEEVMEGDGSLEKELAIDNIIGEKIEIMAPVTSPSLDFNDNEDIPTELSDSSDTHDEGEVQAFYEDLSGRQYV
Experimental: FIG. 9A: Protein-lipid overlay over purified mouse Aster-B GRAM domain with various phospholipid species. PA and PS correspond to phosphatidic acid and phosphatidylserine, respectively. FIG. 9A discloses “6xHis” as SEQ ID NO: 11. FIG. 9B: Purified Aster-B GRAM domain was incubated with sucrose-loaded heavy liposomes containing Dansyl-PE and 80-85% PC or 80-85% PS+/−5% Cholesterol. Liposomes were sedimented, washed, and analyzed by immunoblotting for associated Aster-B Gram protein (anti-His antibody). FIG. 9C: Localization of full-length and B ΔGRAM Aster-B-GFP constructs with plasma membrane (CellMask stain) expressed in HeLa cells in the presence or absence of cholesterol loading imaged by live cell confocal microscopy. […] FIG. 9E: Quantification of Aster-B PH-EGFP intensity in the TIRF plane upon cholesterol loading (left panel; n=2-3 cells, error bars+/−SD). […] TIRF videos recorded 5 slices (slices 3-5 were used to calculate FO) before cholesterol addition. […]
(§1) The Aster proteins contain an N-terminal GRAM domain, a structural motif related to the pleckstrin homology domain that is found in glucosyltransferases, Rab-like GTPase activators, myotubularins, and other membrane-associated proteins. […] Given that phosphatidylserine is highly enriched in the inner leaflet of the PM, it was further determined if the Aster-B GRAM domain was associated with phosphatidylserine-containing liposomes.

Aster-B GRAM domain [2] = biological target: T1, Aster-B GRAM domain; assay: liposome co-sedimentation assay; format: binding; conditions: sucrose-loaded heavy liposomes, 80-85% PC or PS
Experimental: FIG. 9A: Protein-lipid overlay over purified mouse Aster-B GRAM domain with various phospholipid species. PA and PS correspond to phosphatidic acid and phosphatidylserine, respectively. FIG. 9A discloses “6xHis” as SEQ ID NO: 11. FIG. 9B: Purified Aster-B GRAM domain was incubated with sucrose-loaded heavy liposomes containing Dansyl-PE and 80-85% PC or 80-85% PS+/−5% Cholesterol. Liposomes were sedimented, washed, and analyzed by immunoblotting for associated Aster-B Gram protein (anti-His antibody). FIG. 9C: Localization of full-length and B ΔGRAM Aster-B-GFP constructs with plasma membrane (CellMask stain) expressed in HeLa cells in the presence or absence of cholesterol loading imaged by live cell confocal microscopy. […] FIG. 9E: Quantification of Aster-B PH-EGFP intensity in the TIRF plane upon cholesterol loading (left panel; n=2-3 cells, error bars+/−SD). […] TIRF videos recorded 5 slices (slices 3-5 were used to calculate FO) before cholesterol addition.
as §1

ASTER domain of Aster-B = assay: GST agarose assay for [^3H]cholesterol binding; parameters: species or system mouse; conditions: 150 nM protein, 0.003% Triton X-100 in PBS
Experimental: Reactions were carried out in binding buffer (0.003% Triton X-100 in 1× PBS) containing 150 nM of Aster-B ASTER protein and [^3H]cholesterol. After incubation for 30 min at room temperature, the mixture was incubated with pre-equilibrated of glutathione agarose resin (Pierce PI16100) at 4° C. for 2 h, then loaded onto a column and washed. The protein-bound [^3H]cholesterol was eluted with 10 mM GSH peptide and quantified by scintillation counting.

Molecule	interaction with purified Aster-B GRAM domain (Aster-B GRAM domain [1])	co-sedimentation of GRAM domain with liposomes (Aster-B GRAM domain [2])	direct binding to the ASTER domain of Aster-B (ASTER domain of Aster-B)
phosphatidylserine [phosphatidylserine (PS)]	interacted strongly	pelleted with	–
CC(C)CCC[C@@H](C)[C@H]1CC[C@H]2[C@@H]3CC=C4C[C@@H](O)CC[C@]4(C)[C@H]3CC[C@]12C [[^3H]cholesterol]	–	–	direct binding
